Experimental data as given in publication PMC4564450, “Oral and inhaled p38 MAPK inhibitors: effects on inhaled LPS challenge in healthy subjects” (European Journal of Clinical Pharmacology, 2015).

Key:
[1] = test system: sputum neutrophils and macrophages after inhaled LPS; test: Inhaled LPS challenge in healthy subjects: induced sputum cell counts; type: in vivo, human; conditions: study 3
Description: Three randomised, double-blind, placebo-controlled crossover studies were performed; the effects of a single dose of active treatment was investigated in all three studies. […] Studies 2 and 3 were conducted at two UK centres: Quintiles Drug Research Unit, London, and Medicines Evaluation Unit, Manchester. […] The studies were performed during the following time periods: study 1, Sep 2006–Mar 2008; study 2, Jan 2011–Dec 2011; and study 3, Jul 2011–Jan 2012. The design of all three studies was similar. A baseline sputum sample was obtained within 14 days of the first study period when subjects were administered a single dose of randomised treatment. […] Induced sputum was obtained 6 h later to coincide with the maximal inflammatory response caused by inhaled LPS. […] This criterion was used to ensure that sputum cell counts after LPS challenge had returned to close to the original baseline values; this was done to reduce data variability between treatment periods. […] For each challenge, a 1-mg vial of lyophilised LPS (Escherichia coli serotype O26:B6, ref. L-2654, Sigma-Aldrich, Dorset, UK) was diluted with 4 mL of 0.9 % w/v sodium chloride. The reconstitution produced a 0.25 mg/mL solution, of which 2 mL was placed into the pre-calibrated dosimeter pot and administered via five inhalations from a breath-activated dosimeter (Mefar dosimeter MB3, Brescia, Italy). Each inhalation was performed over 3 s with a 6-s breath hold. […] Sputum was induced using normal saline after inhalation of salbutamol, and processing was performed using dithiothreitol (DTT) as previously described. The supernatants were stored at −80 °C for later analysis, while cells were used to produce cytoslides (Cytospin 4, Shandon, Runcorn, UK) for differential cell counting and immunocytochemistry. […] Cell viability was analysed by trypan blue exclusion. Cytoslides with % squamous cell counts <20 % were deemed to be of acceptable quality for differential cell counting. Unfixed cytoslides were wrapped in aluminium foil and stored frozen at −80 °C for immunocytochemistry. Sputum neutrophil percentage was the primary endpoint for all three studies. The neutrophil percentage was modelled using a mixed effects analysis of covariance (ANCOVA) model appropriate for a two-period, two-treatment or three-period, three-treatment crossover design. The fixed effects in the model were treatment and period. Subjects were modelled as a random effect. Additionally, the period-specific baseline was modelled as a covariate. This model was used for all sputum inflammatory markers, including the immunohistocytochemistry, where cell counts were log transformed before analyzing the data and percent differentials were not transformed. […] Ninety percent confidence intervals of the difference (non-transformed data) or the ratio (log-transformed data) were constructed based on the ANCOVA model.

[2] = test system: IL-6, MPO, MCP-1 and MIP-1β in sputum supernatant; test: Inhaled LPS challenge: sputum supernatant protein biomarkers; type: in vivo, human; conditions: study 3
Description: A baseline sputum sample was obtained within 14 days of the first study period when subjects were administered a single dose of randomised treatment. […] Induced sputum was obtained 6 h later to coincide with the maximal inflammatory response caused by inhaled LPS. A washout period of at least 21 days followed, with subjects returning after 14 days of the washout period for induced sputum sampling; this was performed to ensure that the total cell count, total neutrophil count and total macrophage count were within the range of −80 to +100 % of the screening values. […] If these criteria were not met, then up to two repeat visits to obtain sputum were allowed, with at least 4 days between sputum inductions. The next randomised treatment day was scheduled at least 4 days after sputum induction and was identical to the first treatment day.
Sputum was induced using normal saline after inhalation of salbutamol, and processing was performed using dithiothreitol (DTT) as previously described [20]. The supernatants were stored at −80 °C for later analysis, while cells were used to produce cytoslides (Cytospin 4, Shandon, Runcorn, UK) for differential cell counting and immunocytochemistry. Cytoslides for differential cell count were fixed in methanol (Sigma) and then stained with Rapi-Diff® (GCC Diagnostics, Sandyhurst, UK) or Wright-modified Giemsa (Accustatin WG-18, Sigma-Aldrich); a minimum of 400 non-squamous cells were counted and differential cell counts obtained as percentage of total non-squamous cells. Cell viability was analysed by trypan blue exclusion. Cytoslides with % squamous cell counts <20 % were deemed to be of acceptable quality for differential cell counting. Unfixed cytoslides were wrapped in aluminium foil and stored frozen at −80 °C for immunocytochemistry.
In studies 1 and 2, sputum supernatants were analysed for interleukin 6 (IL-6), myeloperoxidase (MPO), monocyte chemotactic protein-1 (MCP-1) and macrophage inflammatory protein-1β (MIP-1 β), using electrochemiluminescent immunoassays (ECLIA) or enzyme-linked immunosorbent assays (ELISA); the manufacturers are listed in the online supplement. In study 3, sputum supernatants were analysed for IL-6, MCP-1 and MIP-1β by the same method.

[3] = test system: IL-6, MCP-1, MIP1β, CC16, fibrinogen and CRP levels in plasma; test: Inhaled LPS challenge: plasma protein biomarkers; type: in vivo, human; conditions: study 3
Description: Blood samples were obtained in studies 2 and 3 to obtain plasma measurements of IL-6, MCP-1, MIP1β, CC16, fibrinogen and CRP levels; pre-dose and 6 h post-LPS samples were used for statistical analysis. This coincided with the timings of sputum measurements of inflammation biomarkers.
Systemic biomarkers were analysed using a similar mixed effects model; these models also adjusted for pre-dose baseline values, which were obtained 24 h prior to LPS challenge in study 2 and 30 min prior to LPS challenge in study 3.

[4] = Plasma pharmacokinetics (sparse sampling); type: in vivo, human; conditions: study 3, fluticasone 500 μg inhaled
[5] = design: method as in PMID 12373268; conditions: single inhaled dose; cited from earlier work
[6] = oral, 12-week treatment; cited from earlier work
[7] = test system: airway inflammation after LPS challenge; design: method as in PMID 17045826; conditions: oral, 6-day treatment; cited from earlier work
[8] = fluticasone 500 μg inhaled, post LPS, ANCOVA model mean
[9] = fluticasone 500 μg inhaled, post LPS
[10] = fluticasone propionate 500 μg inhaled
[11] = fluticasone 500 μg inhaled, 6 hrs post LPS

## CCC(=O)O[C@]1(C(=O)SCF)[C@H](C)C[C@H]2[C@@H]3C[C@H](F)C4=CC(=O)C=C[C@]4(C)[C@@]3(F)[C@@H](O)C[C@@]21C [fluticasone propionate, reference compound]
[1]; fluticasone 500 μg inhaled single dose, 6 h post-LPS
  Mean (SD) sputum neutrophil percentage: 70.0 (12.9) %
[1]; [8]
  Macrophage Differential in sputum: 27.53%
  Total Cell Count in sputum: 3.02e+06 g⁻¹
  Total Macrophage Count in sputum: 820000 g⁻¹
  Total Neutrophil Count in sputum: 2.04e+06 g⁻¹
[1]; fluticasone propionate 500 μg inhaled single dose, p = 0.55
  sputum neutrophil percentage post-LPS challenge compared to placebo: not changed significantly
[1]; post LPS
  Total Cell Count in sputum, Ratio of Means active/placebo: 0.90
  Total Macrophage Count in sputum, Ratio of Means active/placebo: 0.93
  Total Neutrophil Count in sputum, Ratio of Means active/placebo: no effects
[1]; post LPS, footnote: difference, not ratio
  Macrophage Differential in sputum, difference between the active treatment mean and the placebo mean: 2.04%
[1]; post LPS, listed as Fluticasone
  Total Neutrophil Count in sputum, Ratio of Means active/placebo: 0.66
[2]; [9]
  Sputum IL-6, mean: 200.97 pg/mL
  Sputum MCP-1, mean: 133.79 pg/mL
  Sputum MIP-1β, mean: 1157.87 pg/mL
[2]; [10]
  sputum cytokine measurements compared to placebo: no effects
[3]; [11]
  Plasma CC16, mean: 10.51 ng/mL
  Plasma CRP, mean: 708.10 ng/mL
  Plasma Fibrinogen, mean: 2058.00 µg/mL
  Plasma IL-6, mean: 23.30 pg/mL
  Plasma MCP-1, mean: 401.70 pg/mL
  Plasma MIP-1β, mean: 76.95 pg/mL
[3]; [10]
  systemic biomarkers compared to placebo: no effect
[4]; 1.5 h
  Plasma concentration: 56.0 (29.4) pg/mL
[4]; 6.5 h
  Plasma concentration: 37.31 (15.1) pg/mL
[5]
  effects of bronchial challenges in asthma: significantly inhibit

## Cc1c(F)cc(C(=O)NC2CC2)cc1-c1ccc(C(=O)NCC(C)(C)C)cn1 [losmapimod, reference compound]
[6]
  sputum neutrophil counts in COPD patients: failed to reduce

## C[C@]12C=CC(=O)C=C1CC[C@@H]1[C@@H]2[C@@H](O)C[C@@]2(C)[C@H]1CC[C@]2(O)C(=O)CO [prednisolone]
[7]
  airway inflammation in an LPS challenge study: no effect
  plasma CRP levels in an LPS challenge study: suppressed
